Publication PMC5042776 (Molecular Medicine Reports, 2016)
Values after ≈ are worked out from the molar mass of the structure shown. Read-outs that look alike come from different tables or passages of the source. Marks after values point to notes of the source that are not given here.

Experiments:
[1] = tested on: influenza A/PR/8/34 virus (H1N1 subtype); assay: microbe, parasite or virus in culture; type: cell-based; settings: for SI (H1N1): CC50/IC50; for IC50: Influenza A virus, H1N1|PR/8, MDCK, 72 h, read-out: IC50 (H1N1)
[2] = tested on: A/shenzhen/203/2001 (H3N2 subtype); assay: microbe, parasite or virus in culture; type: cell-based, influenza A virus; settings: for SI (H3N2): CC50/IC50; for IC50: Influenza A virus, H3N2, MDCK, 72 h, read-out: IC50 (H3N2)
[3] = Cytotoxicity assay; type: cell-based, canine; settings: dog, MDCK cells
[4] = tested on: influenza A virus (IAV); assay: IAV-induced acute lung injury in mice; type: in vivo, ICR mice
[5] = tested on: influenza A virus (IAV); type: in vivo, ICR mice
[6] = tested on: serum IFN-β, IL-6, TNF-α, IL-1β; type: in vivo, ICR mice; settings: after 5 days of treatment
[7] = tested on: Toll-like receptor 7 (TLR7) signaling pathway; type: in vivo, ICR mice
[8] = 10 mg/kg intragastric once daily 5 days
[9] = 20 mg/kg intragastric once daily 5 days
[10] = 40 mg/kg intragastric once daily 5 days
[11] = 50 mg/kg intragastric once daily 5 days

## C=C1CCC[C@]2(C)C[C@]3(O)OC(=O)C(C)=C3C[C@@H]12 [Atractylenolide III, atractylenolide III]
[1]
  SI (H1N1): 7.8
  IC50: 24.4 µg/mL (≈ 98.3 µM)
[2]
  SI (H3N2): 6.7
  IC50: 28.6 µg/mL (≈ 115 µM)
[3]
  CC50 at 3 days: 191 µg/mL (≈ 770 µM)

## C=C1CCC[C@]2(C)Cc3occ(C)c3C[C@@H]12 [Atractylon, atractylon]
[1]
  SI (H1N1): 29.4
  IC50: 8.9 µg/mL (≈ 41.1 µM)
[1]; H1N1 and H3N2
  SI values relative to those of ribavirin: approximately 3 fold
[2]
  SI (H3N2): 27.8
  IC50: 9.4 µg/mL (≈ 43.5 µM)
[3]
  CC50 at 3 days: 261 µg/mL (≈ 1210 µM)
[4]; [8]
  Inhibitory rate (lung index): 27.5%
  Lung index: 17.43±4.16 ^a mg/g
  Viral load (lung): 4.79±0.84 ^b ×10^6 copies
[4]; [9]
  Inhibitory rate (lung index): 58.8%
  Lung index: 13.08±4.54 ^b mg/g
  Viral load (lung): 2.56±0.72 ^b ×10^6 copies
[4]; [10]
  Inhibitory rate (lung index): 74.5%
  Lung index: 10.90±3.76 ^b mg/g
  Viral load (lung): 0.36±0.15 ^b ×10^6 copies
[4]; 10–40 mg/kg, H&E staining
  histological damage of lung: improved
[5]; [8]
  Life prolong rate: 17.7%
  MDD ± SD (mean day to death): 9.3±3.6 ^a day
  Survival rate: 30.0%
  Survived/total: 6/20
[5]; [9]
  Life prolong rate: 41.8%
  MDD ± SD (mean day to death): 11.2±3.3 ^a day
  Survival rate: 55.0%
  Survived/total: 11/20
[5]; [10]
  Life prolong rate: 57.0%
  MDD ± SD (mean day to death): 12.4±2.6 ^a day
  Survival rate: 70.0%
  Survived/total: 14/20
[6]; 10 mg/kg
  IFN-β (serum): 25.8 ± 2.87 pg/mL
  IL-1β (serum): 17.2±1.35 ^b pg/ml
  IL-6 (serum): 19.5±2.76 ^b pg/ml
  TNF-α (serum): 16.2±2.27 ^a pg/ml
[6]; 20 mg/kg
  IFN-β (serum): 29.4±3.27 ^a pg/ml
  IL-1β (serum): 16.5±1.17 ^b pg/ml
  IL-6 (serum): 17.4±1.11 ^b pg/ml
  TNF-α (serum): 11.8±1.94 ^b pg/ml
[6]; 40 mg/kg
  IFN-β (serum): 30.8±3.31 ^b pg/ml
  IL-1β (serum): 13.4±0.74 ^b pg/ml
  IL-6 (serum): 12.8±1.16 ^b pg/ml
  TNF-α (serum): 9.20±0.77 ^b pg/ml
[7]; compared with model control group, P<0.01
  mRNA expressions of TLR7, MyD88, TRAF6 and IFN-β in lung tissue: obviously upregulated
[7]; mouse, in vivo
  NF-κB p65 protein expression in lung tissue: downregulated

## NC(=O)c1ncn([C@@H]2O[C@H](CO)[C@@H](O)[C@H]2O)n1 [Ribavirin, reference compound]
[1]
  SI (H1N1): 8.2
  IC50: 14.2 µg/mL (≈ 58.1 µM)
[2]
  SI (H3N2): 10.9
  IC50: 10.7 µg/mL (≈ 43.8 µM)
[3]
  CC50 at 3 days: 116 µg/mL (≈ 476 µM)
[4]; [11]
  Inhibitory rate (lung index): 61.7%
  Lung index: 12.68±3.30 ^b mg/g
  Viral load (lung): 1.38±0.56 ^b ×10^6 copies
[5]; [11]
  Life prolong rate: 40.5%
  MDD ± SD (mean day to death): 11.1±3.1 ^a day
  Survival rate: 50.0%
  Survived/total: 10/20
[6]; 50 mg/kg
  IFN-β (serum): 23.3 ± 2.79 pg/mL
  IL-1β (serum): 21.6 ± 3.36 pg/mL
  IL-6 (serum): 18.5±5.99 ^b pg/ml
  TNF-α (serum): 13.4±1.54 ^b pg/ml
